According to US9051339B2, “Sulfur-containing bicyclic compound” (Astellas Pharma Inc., priority 2013, dated 2015):

Molecular target: T1, GABAB receptor (Mus musculus, UniProt Q80T41+Q9WV18)
T1 construct: a mouse brain cortex membrane (4 μg); tissue Japan SLC, Inc. (ddY mice); host or cells: mouse brain cortex membrane
Assay: [35S]GTPγS binding test for PAM action, mouse brain cortical membrane
Assay type: biochemical
Details: 100 μM GABA = 100%; for EC50: concentration raising reaction rate from 20% with 0.3 μM GABA to 50%, mouse brain cortex membrane, read-out: Potency (PAM Potency of GABAB)
Description: The function of the GABAB receptor of the compound of the present invention was evaluated using a [^35S] GTPγS binding test. This method is used for the detection of the PAM action of the compound on the GABAB receptor (Journal of Pharmacology and Experimental Therapeutics, 2003, vol. 307(1), p. 322-330; and Molecular Pharmacology, 2001, vol. 60(5), p. 963-971).
The mouse brain cortical membrane was prepared with reference to a method for preparing a rat brain membrane (European Journal of Pharmacology, 1990, vol. 187 (1), p. 27-38).
The cortex (about 30 g) was cut out of the brains of 90 ddY mice (Japan SLC, Inc.). An A buffer was added to the cortex (cortex/A buffer=about 1:3 (wt/vol)), and homogenized with a glass Teflon-lined homogenizer (Teflon: registered trademark) on ice. The homogenate was centrifuged (750 g, 10 min, 4° C.) and a supernatant was then obtained. An A buffer (90 mL) was added to pellets and homogenized on ice, and a supernatant (750 g, 10 min, 4° C.) was then obtained. By repeating this operation, the supernatant was collected.
The supernatant was centrifuged (18000 g, 15 min, 4° C.). Ultrapure water (54 mL) was added to the pellets, left to stand for 30 min on ice, and then centrifuged (39000 g, 20 min, 4° C.). The pellets were suspended in a KH buffer (54 mL), repeatedly frozen and thawed, and centrifuged (18000 g, 15 min) at 4° C. The buffer was added to the pellets and then frozen and thawed, and this operation was repeated until the centrifugation. By a Bradford method using a protein assay (Protein assay CBB solution; Nacalai Tesque, Inc.), a KH buffer suspension of the pellet was prepared at a protein concentration of 10 mg/mL.
The PAM action of the GABAB receptor in the mouse brain cortex of a test drug was evaluated. To each of wells of a 96-well microplate, a test drug diluted with a B buffer at each concentration (3 nM to 30 μM), a mouse brain cortex membrane (4 μg), [^35S] GTPγS (final concentration of 0.34 nM, Muromachi Yakuhin Co., Ltd.; Institute of Isotopes Co., Ltd.), GABA (final concentration of 0.3 μM; Sigma) were added in this order, followed by standing at room temperature for 1 hour. With a harvester (Filtermate, Perkin-Elmer, Inc.), the suspension was suction-filtered through a glass filter (UniFilter 96-well GF/B filter plates, Perkin-Elmer, Inc.). The glass filter was washed with a C buffer that had been ice-cooled. After drying the glass filter, a liquid scintillation cocktail (50 μL, MicroScinti-PS; PerkinElmer, Inc.) was added to each well. The amount of [^35S] GTPγS bound to the membrane was measured on a plate reader (TopCount, PerkinElmer, Inc.).
The maximum reaction rate of 100 μM GABA was taken as 100%. […] At a time when the test drug was not added, the concentration of the test drug that increased the reaction rate from 20% with 0.3 μM GABA to 50% was taken as a PAM Potency (μM) of the GABAB of the test drug. In the presence of 0.3 μM GABA, the maximum reaction rate of the effect on the GABAB receptor when the test drug was administered up to maximum 30 μM was taken as a PAM Efficacy (%) of the GABAB of the test drug.
The Potency and Efficacy of several representative Example Compounds of the present invention are shown in Table below (In the Table, Ex represents Example Compound No. The “Potency” represents the PAM Potency of GABAB of the test drug, and the “Efficacy” represents PAM Efficacy (%) of GABAB of the test drug. These shall apply hereinafter).

T1 sequence (Q9WV18 20-960): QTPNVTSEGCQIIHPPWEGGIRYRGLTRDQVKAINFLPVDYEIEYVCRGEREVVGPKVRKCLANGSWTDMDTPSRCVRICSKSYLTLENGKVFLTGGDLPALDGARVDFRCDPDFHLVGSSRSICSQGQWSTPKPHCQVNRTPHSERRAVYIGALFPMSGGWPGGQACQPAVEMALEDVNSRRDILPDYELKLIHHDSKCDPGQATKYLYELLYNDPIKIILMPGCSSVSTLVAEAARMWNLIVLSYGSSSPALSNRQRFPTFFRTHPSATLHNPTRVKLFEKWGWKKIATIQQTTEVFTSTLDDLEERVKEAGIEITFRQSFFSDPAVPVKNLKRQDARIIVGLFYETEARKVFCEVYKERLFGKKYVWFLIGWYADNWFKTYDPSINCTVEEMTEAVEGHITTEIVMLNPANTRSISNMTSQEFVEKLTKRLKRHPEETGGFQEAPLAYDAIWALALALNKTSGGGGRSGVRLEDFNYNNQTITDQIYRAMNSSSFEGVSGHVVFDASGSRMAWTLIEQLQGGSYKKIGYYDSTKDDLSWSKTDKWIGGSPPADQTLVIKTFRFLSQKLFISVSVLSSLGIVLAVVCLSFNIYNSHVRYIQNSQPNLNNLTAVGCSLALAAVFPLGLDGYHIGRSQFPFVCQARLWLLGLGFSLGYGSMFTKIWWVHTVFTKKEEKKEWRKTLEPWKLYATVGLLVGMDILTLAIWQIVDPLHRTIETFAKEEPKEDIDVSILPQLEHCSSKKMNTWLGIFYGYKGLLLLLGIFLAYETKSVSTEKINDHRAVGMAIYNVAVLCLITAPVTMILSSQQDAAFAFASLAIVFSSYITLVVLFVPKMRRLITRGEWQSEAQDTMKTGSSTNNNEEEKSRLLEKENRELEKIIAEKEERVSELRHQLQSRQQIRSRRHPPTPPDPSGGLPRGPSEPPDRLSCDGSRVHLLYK
T1 sequence (Q80T41 41-940): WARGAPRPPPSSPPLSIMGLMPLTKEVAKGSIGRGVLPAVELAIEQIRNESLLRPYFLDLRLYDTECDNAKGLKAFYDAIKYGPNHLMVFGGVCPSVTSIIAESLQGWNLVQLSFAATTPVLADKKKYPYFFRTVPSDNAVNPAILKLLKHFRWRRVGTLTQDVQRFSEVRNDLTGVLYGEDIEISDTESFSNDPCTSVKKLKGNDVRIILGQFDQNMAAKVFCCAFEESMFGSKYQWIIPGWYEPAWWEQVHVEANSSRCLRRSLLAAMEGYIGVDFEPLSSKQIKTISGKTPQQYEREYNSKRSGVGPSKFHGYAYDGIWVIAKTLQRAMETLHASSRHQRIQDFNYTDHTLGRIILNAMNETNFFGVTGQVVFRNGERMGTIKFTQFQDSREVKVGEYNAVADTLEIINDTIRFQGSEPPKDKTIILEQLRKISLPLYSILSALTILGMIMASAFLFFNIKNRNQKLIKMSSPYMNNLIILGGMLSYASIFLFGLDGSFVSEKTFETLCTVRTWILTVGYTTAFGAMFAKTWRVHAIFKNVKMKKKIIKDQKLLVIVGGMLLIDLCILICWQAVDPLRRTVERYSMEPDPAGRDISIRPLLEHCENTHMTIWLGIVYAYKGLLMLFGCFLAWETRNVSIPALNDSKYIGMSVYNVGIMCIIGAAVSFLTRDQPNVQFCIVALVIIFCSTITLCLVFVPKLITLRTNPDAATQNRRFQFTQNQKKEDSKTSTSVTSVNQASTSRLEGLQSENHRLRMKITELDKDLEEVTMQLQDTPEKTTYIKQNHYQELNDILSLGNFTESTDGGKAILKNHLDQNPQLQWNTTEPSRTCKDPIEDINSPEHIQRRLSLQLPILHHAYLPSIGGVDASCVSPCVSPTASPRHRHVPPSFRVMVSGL

SMILES: Cc1nc(CN2CCS(=O)(=O)CC2)c2cc(C3CCC(C)(C)CC3)sc2n1 [Ex2, 6-(4,4-dimethylcyclohexyl)-4-[(1,1-dioxidothiomorpholin-4-yl)methyl]-2-methylthieno[2,3-d]pyrimidine]
- EC50: 0.11 µM
- Emax (maximum reaction rate in presence of 0.3 μM GABA, test drug up to 30 μM, read-out: Efficacy (PAM Efficacy of GABAB)): 207%

SMILES: Cc1nc(CN2CC[C@@H](O)[C@H](O)C2)c2cc(C3CCC(C)(C)CC3)sc2n1 (single isomer, unassigned) [Ex31, trans-1-{[6-(4,4-dimethylcyclohexyl)-2-methylthieno[2,3-d]pyrimidin-4-yl]methyl}piperidine-3,4-diol]
- EC50: 0.11 µM
- Efficacy (PAM Efficacy of GABAB) (maximum reaction rate in presence of 0.3 μM GABA, test drug up to 30 μM): 300%
